Measured values as given in patent US6420571B2, “Methods for preparing antiviral calanolide compounds” (Sarawak MediChem Pharmaceuticals, Inc., priority 1999, dated 2002).

Tests used:
[1] = test system: HIV-1; conditions: CEM-SS cells; read-out: EC50, HIV-1 replication; cited from earlier work
[2] = test system: HIV-1; conditions: down to a concentration of 0.1 μM; cited from earlier work
[3] = test system: pyridinone-resistant A17 virus; conditions: cited from earlier work
[4] = test system: AZT-resistant G-9106 strain of HIV; conditions: cited from earlier work

Structure (SMILES) | EC50 [1] [nM] | protection against the cytopathic effects of HIV-1 [2] [%] | activity against pyridinone-resistant A17 virus [3] | activity against AZT-resistant G-9106 strain of HIV [4] | melting point [°C]
CCCc1cc(=O)oc2c3c(c4c(c12)OC(C)(C)C=C4)O[C@H](C)[C@@H](C)[C@@H]3O [(+)-calanolide A] | 100 | 100 | active | active | 
CCCc1cc(=O)oc2cc(OC(=O)C(C)(C)C)cc(O)c12 |  |  |  |  | 158 to 160
